Test [1] relates to Mycobacterium tuberculosis. Nature of the test: Antimycobacterial activity against Mycobacterium bovis BCG after 14 days by inverted microscopic analysis. Format: functional. The following applies: variant bovis BCG, 336 h.
The test system of test [2] is Mycobacterium tuberculosis. The test is described as follows: Antimycobacterial activity against Mycobacterium bovis BCG assessed as effect on membrane morphology by atomic force microscopic analysis. The following applies: variant bovis BCG. Format: functional, organism-based.
The test system of test [3] is Mycobacterium tuberculosis. Nature of the test: Antimycobacterial activity against Mycobacterium bovis BCG assessed as effect on membrane topology by atomic force microscopic analysis. The following applies: variant bovis BCG. Format: functional, organism-based.
Test [4] has as its system Mycobacterium tuberculosis. The test is described as follows: Antimycobacterial activity against Mycobacterium bovis BCG after 14 days by inverted microscopic analysis in presence of plasma. Format: functional. The following applies: variant bovis BCG, 336 h.
Test [5] has as its system Mycobacterium tuberculosis. The test is described as follows: Antimycobacterial activity against Mycobacterium bovis BCG assessed as pore and grove formation by atomic force microscopic analysis. The class given is functional, organism-based. Particulars: variant bovis BCG.
Test [6] concerns Mycobacterium tuberculosis. Nature of the test: Antimycobacterial activity against Mycobacterium bovis BCG assessed as rugged membrane surface by atomic force microscopic analysis. Format: functional, organism-based. Particulars: variant bovis BCG.

The source of these data is ChEMBL document CHEMBL3621073, “Bile acid amphiphiles with tunable head groups as highly selective antitubercular agents” (Medchemcomm, 2014).

Converted amounts (≈) assume the structure as drawn. The source made the active and inactive calls. The calls are words filed in the database; no cut-off is given here.

In general, MIC99 refers to an inhibitory concentration at the 99% level, which refers to growth in some studies and to a panel of isolates in others.

For `COC(=O)CC[C@@H](C)[C@H]1CC[C@H]2[C@@H]3CC[C@@H]4C[C@H](OC(=O)C[N+]5(C)CCCCC5)CC[C@]4(C)[C@H]3CC[C@]12C`, in test [1], the MIC99 was determined as 50 µM.

In the case of `COC(=O)CC[C@@H](C)[C@H]1CC[C@H]2[C@@H]3CC[C@@H]4C[C@H](OC(=O)C[n+]5ccccc5)CC[C@]4(C)[C@H]3C[C@H](OC(=O)C[n+]3ccccc3)[C@]12C`, the MIC99 in test [1] came out at 6.25 µM.

For the compound `COC(=O)CC[C@@H](C)[C@H]1CC[C@H]2[C@@H]3CC[C@@H]4C[C@H](OC(=O)C[n+]5ccc(N(C)C)cc5)CC[C@]4(C)[C@H]3C[C@H](OC(=O)C[n+]3ccc(N(C)C)cc3)[C@]12C`, in test [1], the MIC99 was 2.34 µM.

Regarding `COC(=O)CC[C@@H](C)[C@H]1CC[C@H]2[C@@H]3[C@H](OC(=O)C[n+]4ccccc4)C[C@@H]4C[C@H](OC(=O)C[n+]5ccccc5)CC[C@]4(C)[C@H]3C[C@H](OC(=O)C[n+]3ccccc3)[C@]12C.[Cl-].[Cl-].[Cl-]`, the MIC99 in test [1] was 6.25 µM.

On to `COC(=O)CC[C@@H](C)[C@H]1CC[C@H]2[C@@H]3[C@H](OC(=O)C[N+](C)(C)C)C[C@@H]4C[C@H](OC(=O)C[N+](C)(C)C)CC[C@]4(C)[C@H]3C[C@H](OC(=O)C[N+](C)(C)C)[C@]12C.[Cl-].[Cl-].[Cl-]`, for which, in test [1], the MIC99 was 6.25 µM.

`COC(=O)CC[C@@H](C)[C@H]1CC[C@H]2[C@@H]3[C@H](OC(=O)C[n+]4ccc(N(C)C)cc4)C[C@@H]4C[C@H](OC(=O)C[n+]5ccc(N(C)C)cc5)CC[C@]4(C)[C@H]3CC[C@]12C` returned an MIC99 in test [1] of 3.12 µM.

In test [1], `NNC(=O)c1ccncc1` [ISONIAZID] came in with an MIC99 of 0.78 µM (≈ 0.107 µg/mL).

Take `COC(=O)CC[C@@H](C)[C@H]1CC[C@H]2[C@@H]3[C@H](OC(=O)CN)C[C@@H]4C[C@H](OC(=O)CN)CC[C@]4(C)[C@H]3C[C@H](OC(=O)CN)[C@]12C.Cl.Cl.Cl`: the outcome in test [2] and in test [3] was inactive. This compound also displayed an MIC99 in test [1] of 18.8 µM.

Turning to `COC(=O)CC[C@@H](C)[C@H]1CC[C@H]2[C@@H]3[C@H](OC(=O)C[n+]4ccccc4)C[C@@H]4C[C@H](OC(=O)C[n+]5ccccc5)CC[C@]4(C)[C@H]3CC[C@]12C`, the MIC99 in test [1] stood at 9.38 µM.

`C[C@H]1COc2c(N3CCN(C)CC3)c(F)cc3c(=O)c(C(=O)O)cn1c23` [LEVOFLOXACIN] showed an MIC99 in test [1] of 0.39 µM (≈ 0.141 µg/mL).

Compound `COC(=O)CC[C@@H](C)[C@H]1CC[C@H]2[C@@H]3CC[C@@H]4C[C@H](OC(=O)CN)CC[C@]4(C)[C@H]3CC[C@]12C` returned an MIC99 in test [1] of over 50 µM.

In the case of `COC(=O)CC[C@@H](C)[C@H]1CC[C@H]2[C@@H]3CC[C@@H]4C[C@H](OC(=O)C[n+]5ccccc5)CC[C@]4(C)[C@H]3CC[C@]12C`, the MIC99 in test [1] is over 50 µM.

Turning to `COC(=O)CC[C@@H](C)[C@H]1CC[C@H]2[C@@H]3CC[C@@H]4C[C@H](OC(=O)C[N+](C)(C)C)CC[C@]4(C)[C@H]3C[C@H](OC(=O)C[N+](C)(C)C)[C@]12C`, the MIC99 in test [1] is 25 µM.

As for `COC(=O)CC[C@@H](C)[C@H]1CC[C@H]2[C@@H]3[C@H](OC(=O)CN)C[C@@H]4C[C@H](OC(=O)CN)CC[C@]4(C)[C@H]3CC[C@]12C`, in test [1], the MIC99 was found to be 37.5 µM (≈ 19.5 µg/mL).

For `COC(=O)CC[C@@H](C)[C@H]1CC[C@H]2[C@@H]3[C@H](OC(=O)C[N+]4(C)CCCCC4)C[C@@H]4C[C@H](OC(=O)C[N+]5(C)CCCCC5)CC[C@]4(C)[C@H]3C[C@H](OC(=O)C[N+]3(C)CCCCC3)[C@]12C.[Cl-].[Cl-].[Cl-]`, in test [1], the MIC99 turned out to be 6.25 µM.

In test [1], `COC(=O)CC[C@@H](C)[C@H]1CC[C@H]2[C@@H]3CC[C@@H]4C[C@H](OC(=O)C[N+]5(C)CCCCC5)CC[C@]4(C)[C@H]3C[C@H](OC(=O)C[N+]3(C)CCCCC3)[C@]12C` yielded an MIC99 of 3.12 µM.

For the compound `COC(=O)CC[C@@H](C)[C@H]1CC[C@H]2[C@@H]3[C@H](OC(=O)C[n+]4ccc(N(C)C)cc4)C[C@@H]4C[C@H](OC(=O)C[n+]5ccc(N(C)C)cc5)CC[C@]4(C)[C@H]3C[C@H](OC(=O)C[n+]3ccc(N(C)C)cc3)[C@]12C.[Cl-].[Cl-].[Cl-]`, the MIC99 in test [4] came out at 6.25 µM; in test [1], 3.12 µM. Besides, the result in test [5] and in test [6] was Active.

Consider `COC(=O)CC[C@@H](C)[C@H]1CC[C@H]2[C@@H]3[C@H](OC(=O)C[N+]4(C)CCCCC4)C[C@@H]4C[C@H](OC(=O)C[N+]5(C)CCCCC5)CC[C@]4(C)[C@H]3CC[C@]12C`, for which the MIC99 in test [1] worked out at 6.25 µM.

Consider `COC(=O)CC[C@@H](C)[C@H]1CC[C@H]2[C@@H]3CC[C@@H]4C[C@H](OC(=O)C[N+](C)(C)C)CC[C@]4(C)[C@H]3CC[C@]12C`, for which the MIC99 in test [1] came to 50 µM.

The compound `COC(=O)CC[C@@H](C)[C@H]1CC[C@H]2[C@@H]3[C@H](OC(=O)C[N+](C)(C)C)C[C@@H]4C[C@H](OC(=O)C[N+](C)(C)C)CC[C@]4(C)[C@H]3CC[C@]12C` returned an MIC99 in test [1] of 4.68 µM.

`COC(=O)CC[C@@H](C)[C@H]1CC[C@H]2[C@@H]3CC[C@@H]4C[C@H](OC(=O)C[n+]5ccc(N(C)C)cc5)CC[C@]4(C)[C@H]3CC[C@]12C` showed an MIC99 in test [1] of 50 µM.

In test [1], `COC(=O)CC[C@@H](C)[C@H]1CC[C@H]2[C@@H]3CC[C@@H]4C[C@H](OC(=O)CN)CC[C@]4(C)[C@H]3C[C@H](OC(=O)CN)[C@]12C` showed an MIC99 of 25 µM (≈ 13 µg/mL).
